Patent publication US9040481B2, “Methods for treating steatotic disease” (The General Hospital Corporation, priority 2010, dated 2015)
Each block holds one substance with its values, some of them ahead of it. Where no end group is shown, it is not given here. FAM = 5-carboxyfluorescein (5-FAM), fluorescent label attached at the amino terminus

Legend:
[1] = system: hepatocytes isolated from ob/ob mice; format: cell-based, mouse; details: for specificity of intracellular transport: distribution versus pattern of mitotracker: Ob/Ob hepatocytes, 18 hours, 1 microM FAM peptide, 1 microM Mitotracker, 25 mM glucose
Protocol: GLP-1(28-36)amide (FIAWLVKGRamide (SEQ ID NO:1) and the GLP-1(28-37) Arg-34 glycine extended (FIAWLVRGRG (SEQ ID NO:4)) peptides were prepared by solid phase synthesis and purified by sequential HPLC to >98% single component homogeneity. Verification of the peptides was done by both amino acid composition analysis and by mass spectroscopy. Fluorescent-labeled GLP-1(28-36)amide was prepared with the green fluorescence compound, 5-carboxyfluorescein (5-FAM, fluorescein amidite) and added to hepatocytes isolated from the liver of an ob/ob mouse along with Mitotracker, a specific red fluorochrome mitochondrial marker from Molecular Probes (AnaSpec, Fremont Calif.). The mitotracker compound used requires oxidation to develop fluorescence emission and fluoresces only if cells are viable and actively respiring. The oxidized red fluorochrome stains mitochondria of live and poorly respiring cells (RedCMXRos #7512) and the reduced red fluorochrome stains only actively respiring cells (Red CM-H2XRos #7513).
Mitochondrial localization was evaluated as follows, Hepatocytes were isolated from ob/ob mice and diet-induced obese (DIO) mice and plated overnight on 4 well glass slides (NUNC, Inc., IL) in maintenance medium (12), Next day cells were treated with 10 microM PAM-labeled GLP-1 (28-36)amide peptide (FAM-FIAWLVKGRamide (SEQ ID NO:1)) and 50 nM MitoTracker Red CM-H2Ros for 5 minutes in no dye, no PBS, 5 mM Glucose DMEM medium. Cells were washed with the same medium and images were taken 15 minutes later using Nikon Diaphot 300 inverted microscope SPOT RT camera and SPOT 3.3.1 software (Diagnostic Instruments, Inc., MI).
Whether intracellular transport of FAM-GLP-1(28-36)amide is specific for […] was evaluated in hepatocytes isolated from Ob/Ob mice and treated for 18 hours with 1 microM Mitotracker Red CM-H2XRos and 1 microM of TAM labeled GLP-1 (28-36) peptide or irrelevant peptide controls: synapsin I-derived petide (FAM-LRRRISDANFamide (SEQ NO:13)), AnaSpec Cat #61756; IP3R-derived peptide (FAM-GRRESLTSFGamide (SEQ ID NO:14)), AnaSpec cat. #61731; or angiotensin I peptide (FAM-DRVYIHPFHL (SEQ ID NO:15)), AnaSpec cat. #61185, in 25 mM glucose maintenance medium. Irrelevant peptides were obtained from AnaSpec, Fremont, Calif. Celts were washed with 25 mM glucose Krebs-Ringer buffer. Images were taken using Nikon Diaphot 300 inverted microscope SPOT RT camera and SPOT 3.3.1 software (Diagnostic Instruments, Inc., MI).

[2] = system: isolated mouse hepatocytes
[3] = mouse, in vivo
[4] = mouse, in vivo; remark: listed apart in the source

Substance: FAM-DRVYIHPFHL ({FAM}-DRVYIHPFHL) [angiotensin I peptide, irrelevant peptide control, AnaSpec cat. #61185]
- specificity of intracellular transport: distribution versus pattern of mitotracker [1]: do not distribute in hepatocytes with the pattern of distribution of mitotracker

Substance: FAM-FIAWLVKGRamide ({FAM}-FIAWLVKGR-NH2; UniProt P01275 119-127, looked up, fragment) [FAM-GLP-1(28-36)amide, GLP-1(28-36)amide labeled at the amino-terminus with 5-carboxyfluorescein (FAM)]
- specificity of intracellular transport: distribution versus pattern of mitotracker [1]: appears to be specific for GLP-1(28-36)amide

Substance: FAM-GLP-1: fluorescence-labeled GLP-1
- binding to the surface of isolated mouse hepatocytes [2]: no binding

Substance: FAM-GRRESLTSFGamide ({FAM}-GRRESLTSFG-NH2) [IP3R-derived peptide, irrelevant peptide control, AnaSpec cat. #61731]
- specificity of intracellular transport: distribution versus pattern of mitotracker [1]: do not distribute in hepatocytes with the pattern of distribution of mitotracker

Substance: FAM-LRRRISDANFamide [synapsin I-derived petide]
- specificity of intracellular transport: distribution versus pattern of mitotracker [1]: do not distribute in hepatocytes with the pattern of distribution of mitotracker

Substance: FAM-glucagon: FAM-labeled control hormone known to have receptors on hepatocytes
- binding to the surface of isolated mouse hepatocytes [2]: readily binds to the surface of hepatocytes

- activities of the mice [3]: no observable change in the activities
- time to enter stressed hepatocytes [1]: ≤ 15 min
- MCR of the peptide [4]: 40 to 50 mL/min
Substance: FIAWLVKGR-NH2 [GLP-1(28-36)amide, FIAWLVKGRamide]
- mechanism of transport into hepatocytes (GLP-1 receptor): occurs by GLP-1 receptor-independent mechanisms
